Experiments:
[1] = Stability test: UV-visible spectrum change over time in aqueous solution; type: physicochemical
Description: Specifically, the UV-visible spectrum of an aqueous solution of 1 mg of each osmium complex, ruthenium hexamine, and Ferricyanide dissolved in 1 mL of 0.1 M PBS (pH 7.4) was measured and stored at room temperature for 11 days.

[2] = tested on: FAD-glucose dehydrogenase (FAD-GDH); type: biochemical; conditions: pH 7.4
Description: To verify the electrochemical properties of osmium complex, cyclic voltammetry was performed. Using a carbon electrode as the working electrode, platinum as the auxiliary electrode, and an Ag/AgCl (sat. KCl) electrode as a reference electrode, the current was measured by changing the glucose concentration in a mixed solution including FAD-glucose dehydrogenase (FAD-GDH) 10 mg/mL, osmium complex 30 mmol and 0.1 M PBS (pH 7.4).

[3] = Description: In subsequent examples, an osmium complex sodium salt was used by substituting the osmium complex with NaOH at 1:3 equivalent ratios.

For `N.N.N.N.N.N.[Cl-].[Cl-].[Cl-].[Ru+3]` [ruthenium hexamine, Hexamine ruthenium chloride [Ru(NH3)6Cl3], reference compound], the “UV-visible spectrum change over time” value ([1]; 1 mg in 1 mL 0.1 M PBS (pH 7.4), room temperature, 11 days) was “no change in the UV-visible spectrum was observed over time”.
With Os(dcbpy)2Cl2 [osmium complex] the response slope [2] was 77.1 nA/(mg/dL), the solubility in water [3] was “low solubility in water” and the “UV-visible spectrum change over time” value ([1]; pH 7.4) was “the absorbance of absorption peaks at 400 nm and 520 mm decreased with time”.
